Results on three compounds are retold here after the NIST ThermoML archive (doi:10.1016/j.jct.2017.02.009).

± gives the expanded uncertainty stated by the source.

For series [1] the following is noted: 100 kPa, Liquid; for mass density: Vibrating tube method; for viscosity: Capillary tube (Ostwald / Ubbelohde) method.
Series [2] is described as follows: xn = mol fraction of the nth substance listed. The conditions noted are these: 100 kPa, Liquid, x1 = 1; for mass density: Vibrating tube method.

As for `O=C1CCCO1` [γ-butyrolactone], the mass density – broadly, the mass of a sample divided by its volume – was determined as 1129.4 ± 1 kg/m3 in series [1] (293.15 K), 1124.5 ± 1 kg/m3 in series [1] (298.15 K), 1119.6 ± 1 kg/m3 in series [1] (303.15 K) and 1109.8 ± 1 kg/m3 in series [1] (313.15 K). Also, the viscosity – broadly, the internal friction of a fluid under shear – in series [1] (298.15 K) came to 1.72 ± 0.024 mPa·s.

Turning to `C[S+](C)[O-]` [dimethyl sulfoxide] + O=C1CCCO1, the mass density in series [2] (293.15 K) amounted to 1100.2 ± 1 kg/m3; in series [2] (298.15 K), 1095.2 ± 1 kg/m3; in series [2] (303.15 K), 1090.2 ± 1 kg/m3; in series [2] (313.15 K), 1080.2 ± 1 kg/m3. The viscosity in series [2] (298.15 K, Capillary tube (Ostwald / Ubbelohde) method) was 1.985 ± 0.025 mPa·s.

As to `C[S+](C)[O-]` [dimethyl sulfoxide], the mass density in series [1] (293.15 K) came to 1100.2 ± 1 kg/m3; in series [1] (298.15 K), 1095.2 ± 1 kg/m3; in series [1] (303.15 K), 1090.2 ± 1 kg/m3; in series [1] (313.15 K), 1080.2 ± 1 kg/m3. Moreover, in series [1] (298.15 K), the viscosity stood at 1.985 ± 0.025 mPa·s.
